Earlier results, collected in EP3142678B1, “USE OF CRANBERRY PROANTHOCYANIDINS WITH HERBAL COMPONENTS FOR TREATING AND PREVENTING URINARY TRACT INFECTIONS” (Specchiasol S.r.l., priority 2014, dated 2015).
Read-outs that look alike come from different tables or passages of the source.

System: slime-producing uropathogenic Escherichia coli strains
Conditions: for percentage of residual slime relative to the control: range over four strains; for reduced biofilms: fosfomycin 2000 mg/l

Structure (SMILES)	percentage of residual slime relative to the control (0.007 mg/ml of NAC)	percentage of residual slime relative to the control (8 mg/ml of NAC)	remaining exopolysaccharide matrix, of the amount found with the untreated control (pre-formed biofilms, NAC at the highest concentrations used)	reduced biofilms (initial (5 h) biofilms)	reduced biofilms (mature (48 h) biofilms)
CC(=O)N[C@@H](CS)C(=O)O [NAC, N-Acetylcysteine]	62.5-100%	26.2-64.1%	25-68%	–	–
C[C@@H]1O[C@@H]1P(=O)(O)O [fosfomycin]	–	–	–	40-57%	41-49%
